Measurements as given in US7572809B2, “Isoquinoline aminopyrazole derivatives” (Hoffmann-La Roche Inc., priority 2005, dated 2009).

Experiments:
Aurora A kinase = molecular target: T1, Aurora A kinase (Homo sapiens, UniProt O14965); assay: IC50 determination for inhibitors of Aurora A kinase (ELISA, GST-Histone H3 substrate); assay type: biochemical; settings: mutant Aurora A kinase, 30 μM ATP, 40 minutes; read-out: IC50 Aurora A kinase inhibition
T1 sequence (O14965 1-403): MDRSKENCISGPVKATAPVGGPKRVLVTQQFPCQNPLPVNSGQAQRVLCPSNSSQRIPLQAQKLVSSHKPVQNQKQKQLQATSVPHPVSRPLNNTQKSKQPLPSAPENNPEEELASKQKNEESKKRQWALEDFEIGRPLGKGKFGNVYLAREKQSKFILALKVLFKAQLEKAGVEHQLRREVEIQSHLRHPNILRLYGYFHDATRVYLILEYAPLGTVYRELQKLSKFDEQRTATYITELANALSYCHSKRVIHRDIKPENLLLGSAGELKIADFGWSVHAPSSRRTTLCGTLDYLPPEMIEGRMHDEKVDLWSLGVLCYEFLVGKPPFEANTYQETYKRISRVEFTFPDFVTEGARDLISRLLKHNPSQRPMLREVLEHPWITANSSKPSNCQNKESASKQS
Method: IC50 Determination for Inhibitors of Aurora A Kinase
Aurora A is a Serine Threonine Kinase Involved in Spindle Assembly and Chromosome Segregation.
The assay is a typically ELISA-type assay where substrate (GST-Histone H3) is coupled to the assay-plate and is phosphorylated by the kinase. Phosphorylation is detected by a mouse anti-Phosphopeptid mAb and an HRP-labeled anti-mouse pAb. The assay is validated for IC50-determination.
Kinase activities were measured by Enzyme-Linked Immunosorbent Assay (ELISA): Maxisorp 384-well plates (Nunc) were coated with recombinant fusion protein comprising residues 1-15 of HistoneH3 fused to the N-terminus of Glutathione-S-Transferase. Plates were then blocked with a solution of 1 mg/mL I-block (Tropix cat# T2015—highly purified form of casein) in phosphate-buffered saline. Kinase reactions were carried out in the wells of the ELISA plate by combining an appropriate amount of mutant Aurora A kinase with test compound and 30 μM ATP. The reaction buffer was […] Kinase Buffer (Cell Signaling cat # 9802) supplemented with 1 μg/mL I-block. Reactions were stopped after 40 minutes by addition of 25 mM EDTA (ethylenediaminetetraacetic acid). After washing, substrate phosphorylation was detected by addition of anti-phospho-Histone H3 (Ser 10) 6G3 mAb (Cell Signaling cat #9706) and sheep anti-mouse pAb-HRP (Amersham cat# NA931V), followed by colorimetric development with TMB (3,3′,5,5′-tetramethylbenzidine from Kirkegaard & Perry Laboratories). After readout of the absorbance, IC50 values were calculated using a non-linear curve fit (XLfit® software (ID Business Solution Ltd., Guilford, Surrey, UK)).

HCT 116 cells = assay: Viability assay in HCT 116 cells (CellTiter-Glo); assay type: cell-based; settings: 120 h; HCT 116 human colon carcinoma cells, 5 days incubation
Method: Viability Assay in HCT 116 Cells
A viability assay was performed using the CellTiter-Glo® Luminescent Cell Viability Assay (see Promega Corporation's Technical Bulletin No. 288, pp. 1-11 [revised February, 2004] which is hereby incorporated by reference in its entirety). This assay is a homogeneous method of determining the number of viable cells in culture based on quantitation of the ATP present, an indicator of metabolically active cells. The assay is designed for use with multiwell formats, making it ideal for automated high-throughput screening (HTS), cell proliferation and cytotoxicity assays. The homogeneous assay procedure involves adding a single reagent (containing luciferase, luciferan substrate, and buffer) directly to cells cultured in serum-supplemented medium. Cell washing, removal of medium and multiple pipetting steps are not required. The system detects as few as 15 cells/well in a 384-well format in 10 minutes after adding reagent and mixing.
The homogeneous “add-mix-measure” format results in cell lysis and generation of a luminescent signal proportional to the amount of ATP present. The amount of ATP is directly proportional to the number of cells present in culture. The above-referenced assay generates a “glow-type” luminescent signal, produced by the luciferase reaction, which has a half-life generally greater than five hours, depending on cell type and medium used. The extended half-life eliminates the need to use reagent injectors and provides flexibility for continuous or batch mode processing of multiple plates. The unique homogeneous format avoids errors that may be introduced by other ATP measurement methods that require multiple steps.
HCT 116 cells (human colon carcinoma, ATCC-No. CCl-247) were cultivated in RPMI 1640 medium with GlutaMAX™ I (cell culture media that contains L-Alanyl-L-Glutamine [a stabilized form/source of L-Glutamine] from Invitrogen, Cat-No. 61870-010), 5% Fetal Calf Serum (FCS, Sigma Cat-No. F4135 (FBS)); 100 Units/ml penicillin/100 μg/ml streptomycin (=Pen/Strep from Invitrogen Cat. No. 15140). For the assay the cells were seeded in 384 well plates, 1000 cells per well, in the same medium. The next day the test compounds were added in various concentrations ranging from 30 μM to 0.0015 μM (10 concentrations, 1:3 diluted). After 5 days the viability assay was performed according to the instructions of the manufacturer. In brief: the cell-plate was equilibrated to room temperature for approximately 30 minutes and then the CellTiter-Glo™ reagent (which contains luciferase, luciferan substrate, and buffer) was added. The contents were carefully mixed for 15 minutes to induce cell lysis. After 45 minutes the luminescent signal was measured in Victor 2, (scanning multiwell spectrophotometer, Wallac).
1st. Day: • Medium: RPMI 1640 with GlutaMAX™ I (Invitrogen, Cat-No. 61870), 5% FCS (Sigma Cat.-No. F4135), Pen/Strep (Invitrogen, Cat No. 15140). • HCT116 (ATCC-No. CCl-247): 1000 cells in 60 μl per well of 384 well plate (Greiner 781098, μClear-plate white) • After seeding incubate plates 24 h at 37° C., 5% CO2 2nd. Day: Induction (Treatment with Compounds, 10 Concentrations):
In order to achieve a final concentration of 30 μM as highest concentration 3.5 μl of 10 mM compound stock solution were added directly to 163 μl media. Then step e) of the dilution procedure described below, was followed.
In order to achieve the second highest to the lowest concentrations, a serial dilution with dilution steps of 1:3 was followed according to the procedure (a-e) as described here below: a) for the second highest concentration add 10 μl of 10 mM stock solution of compound to 20 μl dimethylsulfoxide (DMSO) b) dilute 8×1:3 (always 10 μl to 20 μl DMSO) in this DMSO dilution row (results in 9 wells with concentrations from 3333.3 μM to 0.51 μM) c) dilute each concentration 1:47.6 (3.5 μl compound dilution to 163 μl media) […]

IC50 (Aurora A kinase)	IC50 (HCT 116 cells)	Structure (SMILES)
66 nM	–	Cc1ccc(Oc2nc(Nc3cc(C)[nH]n3)cc3ccccc23)cc1 [Example 14, (5-Methyl-1H-pyrazol-3-yl)-(1-p-tolyloxy-isoquinolin-3-yl)-amine]
1660 nM	–	Cc1cc(Nc2cc3ccccc3c(Oc3ccccc3Cl)n2)n[nH]1 [Example 23, [1-(2-Chloro-phenoxy)-isoquinolin-3-yl]-(5-methyl-1H-pyrazol-3-yl)-amine]
39 nM	–	CC(=O)Nc1ccc(Oc2nc(Nc3cc(C)[nH]n3)cc3ccccc23)cc1 [Example 59, N-{4-[-3-(5-Methyl-1H-pyrazol-3-ylamino)-isoquinolin-1-yloxy]-phenyl}-acetamide]
822 nM	–	CCOCCOCCOc1nc(Nc2cc[nH]n2)cc2ccccc12 [Example 110, {1-[2-(2-Ethoxy-ethoxy)-ethoxy]-isoquinolin-3-yl}-(1H-pyrazol-3-yl)-amine]
21 nM	666 nM	COc1cc2cc(Nc3cc(C)[nH]n3)nc(OC3CCCC3)c2cc1OC [Example 117, (1-Cyclopentyloxy-6,7-dimethoxy-isoquinolin-3-yl)-(5-methyl-1H-pyrazol-3-yl)-amine]
653 nM	–	COc1ccc2c(-c3cnn(C)c3)nc(Nc3cc[nH]n3)cc2c1 [Example 135, [6-Methoxy-1-(1-methyl-1H-pyrazol-4-yl)-isoquinolin-3-yl]-(1H-pyrazol-3-yl)-amine]
330 nM	–	Cc1cc(Nc2cc3ccccc3c(-c3ccncc3)n2)n[nH]1 [Example 162, (5-Methyl-1H-pyrazol-3-yl)-(1-pyridin-4-yl-isoquinolin-3-yl)-amine]
390 nM	4010 nM	COc1ccc2c(-c3ccc4ccccc4c3)nc(Nc3cc(C)[nH]n3)cc2c1 [Example 183, (5-Methyl-1H-pyrazol-3-yl)-(1-naphthalen-2-yl-6-methoxy-isoquinolin-3-yl)-amine]
47 nM	–	COc1cccc2c(-c3cccc(C#N)c3)nc(Nc3cc(C)[nH]n3)cc12 [Example 201, 3-[3-(5-Methyl-1H-pyrazol-3-ylamino)-5-methoxy-isoquinolin-1-yl]-benzonitrile]
946 nM	–	c1ccc2c(-c3ccsc3)nc(Nc3cc[nH]n3)cc2c1 [Example 241, (1H-Pyrazol-3-yl)-(1-thiophen-3-yl-isoquinolin-3-yl)-amine]
3440 nM	–	c1ccc2c(-c3ccncc3)nc(Nc3cc[nH]n3)cc2c1 [Example 248, (1H-Pyrazol-3-yl)-(1-pyridin-4-yl-isoquinolin-3-yl)-amine]
2970 nM	–	COc1ccc2c(-c3ccc4ccccc4c3)nc(Nc3cc[nH]n3)cc2c1 [Example 265, (6-Methoxy-1-naphthalen-2-yl-isoquinolin-3-yl)-(1H-pyrazol-3-yl)-amine]
43 nM	995 nM	COc1ccc2c(Nc3ccc(Br)cc3)nc(Nc3cc(C)[nH]n3)cc2c1 [Example 275, N^1-(4-Bromo-phenyl)-6-methoxy-N^3-(5-methyl-1H-pyrazol-3-yl)-isoquinoline-1,3-diamine]
259 nM	–	COc1ccc(Nc2nc(Nc3cc[nH]n3)cc3ccccc23)cc1OC [Example 284, N^1-(3,4-Dimethoxy-phenyl)-N^3-(1H-pyrazol-3-yl)-isoquinoline-1,3-diamine]
241 nM	–	Cc1cc(Nc2cc3ccccc3c(Nc3cccnc3)n2)n[nH]1 [Example 292, N^3-(5-methyl-1H-pyrazol-3-yl)-N^1-pyridin-3-yl-isoquinoline-1,3-diamine]
297 nM	–	Cc1cc(Nc2cc3cc(OCCN4CCOCC4)ccc3c(-c3ccccc3)n2)n[nH]1 [Example 299, (5-Methyl-1H-pyrazol-3-yl)-[6-(2-morpholin-4-yl-ethoxy)-1-phenyl-isoquinolin-3-yl]-amine]
497 nM	–	Cc1cc(Nc2cc3ccccc3c(Sc3ccccc3)n2)n[nH]1 [Example 305, (5-Methyl-1H-pyrazol-3-yl)-(1-phenylsulfanyl-isoquinolin-3-yl)-amine]
210 nM	–	COc1ccc2c(Sc3cccc(F)c3)nc(Nc3cc(C)[nH]n3)cc2c1 [Example 311, [1-(3-Fluoro-phenylsulfanyl)-6-methoxy-isoquinolin-3-yl]-(5-methyl-1H-pyrazol-3-yl)-amine]

Structure (SMILES)	IC50 (Aurora A kinase)	IC50 (HCT 116 cells)
CC(C)COc1nc(Nc2cc[nH]n2)cc2ccccc12 [Example 99, (1-Isobutoxy-isoquinolin-3-yl)-(1H-pyrazol-3-yl)-amine]	1460 nM	–
